What was measured:
[1] = system: engineered RPE layer (blood vessel-RPE construct); assay: Calcium imaging (Fluo-4-AM) after ATP addition; format: cell-based; conditions: 100 μM ATP added to medium; followed by slow decrease to baseline
Protocol: Calcium imaging: Fluo-4-AM was prepared by adding 45 μL DMSO and 45 μL Pluronic-DMSO to a 50 μg vial of Fluo-4-AM.Fluo-4-AM was diluted with HBSS in a ratio of 1:50 and the cells were incubated for 1 hour in 37° C. The cells were washed for 30 minutes in HBSS in 37° C. The sample was placed in an inverted microscope on a heating plate adjusted to 37° C. Fluo-4-AM emission is at 506 nm and excitation is at 494 nm. Images were acquired at a rate of 3.15 Hz. 10 seconds After starting the recording 100 μM ATP were added to the medium. The data was analyzed using ImageJ. TEM: TEM Samples were fixated in 2.5% Glutaraldehyde in PBS over night at 4° C. After several washes in PBS, the samples were post fixed in 1% OsO4 in PBS for 2 h at 4° C. Dehydration was carried out in graded ethanol followed by embedding in Glycid ether. Thin sections were mounted on Formvar/Carbon coated grids, stained with uranyl acetate and lead citrate and examined in Jeol 1400-Plus transmission electron microscope (Jeol, Japan). Images were captured using SIS Megaview III and iTEM the Tem imaging platform (Olympus).SEM: Samples for SEM were fixed with 2.5% glutaraldehyde (24 h, at […]), followed by a graded incubation series in ethanol-water solutions (50-100% (v/v)). […]

[2] = Compressive (bulk) modulus of hydrogel; format: physicochemical; conditions: compression at 100 μm s^−1; n=3
Protocol: The compressive modulus measurements were performed using a Discovery HR-3 Hybrid Rheometer (TA Instruments, DE) with a 20 mm diameter parallel plate geometry and a Peltier plate to maintain the sample temperature. Bulk modulus tests were performed by compressing the samples at a fixed rate of 100 μm s^−1.
Alongside the rheological testing, the bulk mechanical properties of the hydrogel were also assessed. Samples were compressed, and the linear elastic modulus was calculated. Data are presented as mean±SD, n=3.

[3] = High-resolution imaging of hydrogel fiber morphology and pore size; format: physicochemical
Protocol: Data in FIG. 7I is presented as mean±SD, n=3, and each image had at least 180 pores whose area was determined using ImageJ.

[4] = Rheological shear thinning measurements of native and cross-linked ECM hydrogel; format: physicochemical; conditions: 37° C.
Protocol: Rheological Properties: Rheological measurements were taken using Discovery HR-3 hybrid Rheometer (TA Instruments, DE) with 20 mm diameter parallel plate geometry with a Peltier plate to maintain the sample temperature. The samples were loaded at a temperature of 4° C., which was then raised to 37° C. to induce gelation; during which the oscillatory moduli of samples were monitored at a fixed frequency of 1 Hz and a strain of 1%.
The mechanical properties of an exemplary native ECM-based hydrogel (derived from omentum) and of cross-linked hydrogels were assessed by rheological measurements. Shear thinning measurements were conducted at 37° C. Data are presented as mean±SD, n=3. P-values were calculated using a Comparison of Fits test with an Extra Sum of Squares F-test.

hydrogel bulk (linear elastic) modulus with and without exposure to SOx [2] | internal fiber morphology of ECM hydrogel after reinforcement ([3]; before vs after exposure to SOx) | pore size (holes in the mesh) before and after crosslinking ([3]; n=3, at least 180 pores per image) | change in gel viscosity ([4]; increasing SOx concentration to 0.07%) | change in gel viscosity ([4]; sample cross-linked with 0.03% SOx vs control gel) | Molecule | intracellular calcium levels [1]
– | – | – | – | – | Nc1ncnc2c1ncn2[C@@H]1O[C@H](COP(=O)(O)OP(=O)(O)OP(=O)(O)O)[C@@H](O)[C@H]1O [ATP, adenosine triphosphate] | immediately increased intracellular calcium levels in a significant manner
significant reinforcement | without altering the internal morphology | no difference was observed | smaller increase | large increase | Oxidized sucrose [SOx] | –

Source: patent US20250367348A1, “3D PRINTING OF 3-LAYERED RETINA AND CHOROID TISSUE” (Ramot at Tel-Aviv University Ltd., priority 2023, published 2025)
